Measurements taken from patent publication US11046694B2, “Compounds and methods for treating bacterial infections” (Entasis Therapeutics, Inc., priority 2018, dated 2021).
Structures can show the parent of a compound that is named as a salt.

Legend:
P. aeruginosa PBP1a = P. aeruginosa PBP1a (Pseudomonas aeruginosa, UniProt Q07806); format: biochemical; settings: P. aeruginosa PBP1a 60 nM, BOCILLIN FL 30 nM, pH 7.0
P. aeruginosa PBP2 = biological target: T1, P. aeruginosa PBP2 (Pseudomonas aeruginosa, UniProt Q9X6V3); format: biochemical; settings: P. aeruginosa PBP2 300 nM, BOCILLIN FL 30 nM, pH 6.2
T1 sequence (Q9X6V3 1-646): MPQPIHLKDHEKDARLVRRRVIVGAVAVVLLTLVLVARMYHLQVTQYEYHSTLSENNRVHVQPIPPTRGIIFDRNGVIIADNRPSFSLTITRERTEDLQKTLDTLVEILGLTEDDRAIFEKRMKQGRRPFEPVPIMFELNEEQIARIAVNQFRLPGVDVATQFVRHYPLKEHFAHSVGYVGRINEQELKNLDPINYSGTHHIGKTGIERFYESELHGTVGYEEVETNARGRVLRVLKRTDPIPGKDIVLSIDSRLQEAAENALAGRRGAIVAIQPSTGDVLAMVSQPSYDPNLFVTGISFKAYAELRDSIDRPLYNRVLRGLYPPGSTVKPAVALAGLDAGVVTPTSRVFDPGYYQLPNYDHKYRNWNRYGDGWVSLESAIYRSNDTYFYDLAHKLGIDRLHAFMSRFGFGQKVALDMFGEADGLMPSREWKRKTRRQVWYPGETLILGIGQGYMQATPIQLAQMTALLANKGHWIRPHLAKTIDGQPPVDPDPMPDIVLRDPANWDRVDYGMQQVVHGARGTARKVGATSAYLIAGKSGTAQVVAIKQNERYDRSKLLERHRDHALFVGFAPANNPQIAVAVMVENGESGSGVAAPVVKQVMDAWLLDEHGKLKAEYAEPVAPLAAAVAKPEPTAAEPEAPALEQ

P. aeruginosa PBP3 = P. aeruginosa PBP3 (Pseudomonas aeruginosa, UniProt G3XD46); format: biochemical; settings: P. aeruginosa PBP3 60 nM, BOCILLIN FL 30 nM, pH 7.0
P. aeruginosa WT (PAO1) = assay: MIC, CLSI broth microdilution, P. aeruginosa; format: cell-based; settings: Pseudomonas aeruginosa, PAO1; CLSI broth microdilution; read-out: P. aeruginosa WT (PAO1) MIC
E. coli (ATCC25922) = assay: MIC against E. coli; settings: Escherichia coli, ATCC25922, read-out: E. coli MIC (ATCC25922) (mg/L)
A. baumannii (ARC3495) = assay: MIC against A. baumannii; settings: Acinetobacter baumannii, read-out: A. baumannii MIC (ARC3495) (mg/L)
[1] = tested on: K. pneumoniae (ATCC700603); assay: MIC against K. pneumoniae; settings: Klebsiella pneumoniae, ATCC700603, read-out: K. pneumoniae MIC (ATCC700603)

Sequence of P. aeruginosa PBP1a (Q07806 whole entry): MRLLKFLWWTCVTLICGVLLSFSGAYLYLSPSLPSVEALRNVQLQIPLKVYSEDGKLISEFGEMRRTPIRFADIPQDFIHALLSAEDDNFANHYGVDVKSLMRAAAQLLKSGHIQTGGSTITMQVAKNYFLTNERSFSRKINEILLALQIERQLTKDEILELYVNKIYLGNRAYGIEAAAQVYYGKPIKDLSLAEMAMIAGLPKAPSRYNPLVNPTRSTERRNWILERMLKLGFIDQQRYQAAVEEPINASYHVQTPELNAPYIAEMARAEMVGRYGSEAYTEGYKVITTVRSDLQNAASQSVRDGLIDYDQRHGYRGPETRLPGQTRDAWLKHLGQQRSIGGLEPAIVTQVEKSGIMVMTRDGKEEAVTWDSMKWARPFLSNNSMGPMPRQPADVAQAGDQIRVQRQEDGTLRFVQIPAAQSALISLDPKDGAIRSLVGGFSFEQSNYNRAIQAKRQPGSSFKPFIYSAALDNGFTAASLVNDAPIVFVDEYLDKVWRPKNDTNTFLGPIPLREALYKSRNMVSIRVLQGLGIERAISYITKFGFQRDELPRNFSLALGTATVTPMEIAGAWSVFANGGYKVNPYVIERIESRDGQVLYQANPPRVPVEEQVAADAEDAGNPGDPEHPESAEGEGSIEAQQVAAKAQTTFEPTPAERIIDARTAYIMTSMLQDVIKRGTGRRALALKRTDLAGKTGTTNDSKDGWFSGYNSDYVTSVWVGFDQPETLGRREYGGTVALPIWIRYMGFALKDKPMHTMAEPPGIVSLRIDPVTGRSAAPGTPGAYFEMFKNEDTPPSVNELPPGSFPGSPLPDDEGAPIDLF
Sequence of P. aeruginosa PBP3 (G3XD46 whole entry): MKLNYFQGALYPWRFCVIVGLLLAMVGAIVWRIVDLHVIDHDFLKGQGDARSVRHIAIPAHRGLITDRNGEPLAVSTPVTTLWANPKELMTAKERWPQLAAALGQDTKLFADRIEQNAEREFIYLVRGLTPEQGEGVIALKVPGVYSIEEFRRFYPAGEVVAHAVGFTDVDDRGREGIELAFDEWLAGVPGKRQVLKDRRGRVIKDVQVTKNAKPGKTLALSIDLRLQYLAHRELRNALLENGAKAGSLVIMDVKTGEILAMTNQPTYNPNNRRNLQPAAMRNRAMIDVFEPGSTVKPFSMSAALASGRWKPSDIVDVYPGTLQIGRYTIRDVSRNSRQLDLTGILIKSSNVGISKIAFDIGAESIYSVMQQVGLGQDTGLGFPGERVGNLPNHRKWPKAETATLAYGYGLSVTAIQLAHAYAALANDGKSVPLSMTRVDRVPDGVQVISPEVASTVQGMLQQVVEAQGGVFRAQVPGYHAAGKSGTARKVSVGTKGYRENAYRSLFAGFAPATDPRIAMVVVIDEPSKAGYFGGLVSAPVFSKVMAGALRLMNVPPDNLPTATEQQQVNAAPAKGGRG

SMILES | PBP1a acylation rate, k(on) (M^−1 · s^−1) (P. aeruginosa PBP1a) | PBP2 acylation rate, k(on) (M^−1 · s^−1) (P. aeruginosa PBP2) | PBP3 acylation rate, k(on) (M^−1 · s^−1) (P. aeruginosa PBP3) | MIC (P. aeruginosa WT (PAO1)) [µg/mL] | MIC (E. coli (ATCC25922)) [mg/L] | MIC (A. baumannii (ARC3495)) [mg/L] | MIC [1] [µg/mL]
CN/C(=N\O)[C@@H]1c2c(cnn2CCN)[C@@H]2CN1C(=O)N2OS(=O)(=O)O [Example 47, (4R,8S)-1-(2-aminoethyl)-8-((Z)—N′-hydroxy-N-methylcarbamimidoyl)-6-oxo-4,8-dihydro-1H-4,7-methanopyrazolo[3,4-e][1,3]diazepin-5(6H)-yl hydrogen sulfate] | ** (** represents a k(on) of 100 to 10,000 M^−1 · s^−1) | * (* represents a k(on) < 100 M^−1 · s^−1) | *** (*** represents a k(on) > 10,000 M^−1 · s^−1) | < 8 | < 8 | < 8 | < 8
Cn1ncc2c1[C@@H](/C(=N/O)NCc1nc(N)cs1)N1C[C@@H]2N(OS(=O)(=O)O)C1=O [Example 51, (4R,8S)-8-((Z)—N-((4-aminothiazol-2-yl)methyl)-N′-hydroxycarbamimidoyl)-1-methyl-6-oxo-4,8-dihydro-1H-4,7-methanopyrazolo[3,4-e][1,3]diazepin-5(6H)-yl hydrogen sulfate] | ** (** represents a k(on) of 100 to 10,000 M^−1 · s^−1) | * (* represents a k(on) < 100 M^−1 · s^−1) | ** (** represents a k(on) of 100 to 10,000 M^−1 · s^−1) | > 16 | < 8 | > 16 | > 16
Cn1ncc2c1[C@@H](/C(=N/OC(=O)NC(C)(C)C(=O)O)NCc1nc(N)cs1)N1C[C@@H]2N(OS(=O)(=O)O)C1=O [Example 52, (Z)-1-(4-aminothiazol-2-yl)-8,8-dimethyl-3-((4R,8S)-1-methyl-6-oxo-5-(sulfooxy)-4,5,6,8-tetrahydro-1H-4,7-methanopyrazolo[3,4-e][1,3]diazepin-8-yl)-6-oxo-5-oxa-2,4,7-triazanon-3-en-9-oic acid] | ** (** represents a k(on) of 100 to 10,000 M^−1 · s^−1) | * (* represents a k(on) < 100 M^−1 · s^−1) | ** (** represents a k(on) of 100 to 10,000 M^−1 · s^−1) | > 16 | < 8 | > 16 | > 16
Cn1ncc2c1[C@@H](c1noc(=O)n1Cc1nc(N)cs1)N1C[C@@H]2N(OS(=O)(=O)O)C1=O [Example 53, (4R,8S)-8-(4-((4-aminothiazol-2-yl)methyl)-5-oxo-4,5-dihydro-1,2,4-oxadiazol-3-yl)-1-methyl-6-oxo-4,8-dihydro-1H-4,7-methanopyrazolo[3,4-e][1,3]diazepin-5(6H)-yl hydrogen sulfate] | ** (** represents a k(on) of 100 to 10,000 M^−1 · s^−1) | * (* represents a k(on) < 100 M^−1 · s^−1) | ** (** represents a k(on) of 100 to 10,000 M^−1 · s^−1) | > 16 | < 8 | > 16 | > 16
CCN1CCN(C(=O)NC/C(=N\O)[C@@H]2c3c(cnn3C)[C@@H]3CN2C(=O)N3OS(=O)(=O)O)C(=O)C1=O [Example 55, (4R,8S)-8-((E)-2-(4-ethyl-2,3-dioxopiperazine-1-carboxamido)-1-(hydroxyimino)ethyl)-1-methyl-6-oxo-4,8-dihydro-1H-4,7-methanopyrazolo[3,4-e][1,3]diazepin-5(6H)-yl hydrogen sulfate] | * (* represents a k(on) < 100 M^−1 · s^−1) | * (* represents a k(on) < 100 M^−1 · s^−1) | * (* represents a k(on) < 100 M^−1 · s^−1) | > 16 | < 8 | > 16 | > 16
Cn1ncc2c1[C@@H](/C(CNS(N)(=O)=O)=N/O)N1C[C@@H]2N(OS(=O)(=O)O)C1=O [Example 56, (4R,8S)-8-((E)-1-(hydroxyamino)-2-(sulfamoyl)amino)ethyl)-1-methyl-6-oxo-4,8-dihydro-1H-4,7-methanopyrazolo[3,4-e][1,3]diazepin-5(6H)-yl hydrogen sulfate] | ** (** represents a k(on) of 100 to 10,000 M^−1 · s^−1) | * (* represents a k(on) < 100 M^−1 · s^−1) | ** (** represents a k(on) of 100 to 10,000 M^−1 · s^−1) | > 16 | < 8 | > 16 | > 16
Cn1ncc2c1[C@@H](c1noc(=O)n1C)N1C[C@@H]2N(OS(=O)(=O)O)C1=O [Example 66, ((4R,8S)-1-methyl-8-(4-methyl-5-oxo-4,5-dihydro-1,2,4-oxadiazol-3-yl)-6-oxo-4,8-dihydro-1H-4,7-methanopyrazolo[3,4-e][1,3]diazepin-5(6H)-yl hydrogen sulfate] | ** (** represents a k(on) of 100 to 10,000 M^−1 · s^−1) | * (* represents a k(on) < 100 M^−1 · s^−1) | ** (** represents a k(on) of 100 to 10,000 M^−1 · s^−1) | > 16 | < 8 | > 16 | > 16
Cn1ncc2c1[C@@H](/C(=N/O)C(N)=O)N1C[C@@H]2N(OS(=O)(=O)O)C1=O [Example 67, (4R,8S)-8-((Z)-2-amino-1-(hydroxyimino)-2-oxoethyl-1-methyl-6-oxo-4,8-dihydro-1H-4,7-methanopyrazolo[3,4-e][1,3]diazepin-5(6H)-yl hydrogen sulfate] | * (* represents a k(on) < 100 M^−1 · s^−1) | * (* represents a k(on) < 100 M^−1 · s^−1) | ** (** represents a k(on) of 100 to 10,000 M^−1 · s^−1) | > 16 | < 8 | > 16 | > 16
CN/C(=N\O)[C@@H]1c2c(cnn2CCCCN)[C@@H]2CN1C(=O)N2OS(=O)(=O)O [Example 68, (4R,8S)-1-(4-aminobutyl)-8-((Z)—N′-hydroxy-N-methylcarbamimidoyl)-6-oxo-4,8-dihydro-1H-4,7-methanopyrazolo[3,4-e][1,3]diazepin-5(6H)-yl hydrogen sulfate] | * (* represents a k(on) < 100 M^−1 · s^−1) | * (* represents a k(on) < 100 M^−1 · s^−1) | ** (** represents a k(on) of 100 to 10,000 M^−1 · s^−1) | < 8 | 8 to 16 | 8 to 16 | > 16
CC(=O)O/N=C(\N)[C@@H]1c2c(cnn2C)[C@@H]2CN1C(=O)N2OS(=O)(=O)O [Example 70, Pyridium (4R,8S)-8-((Z)—N′-acetoxycarbamimidoyl)-1-methyl-6-oxo-4,8-dihydro-1H-4,7-methanopyrazolo[3,4-e][1,3]diazepin-5(6H)-yl hydrogen sulfate] | * (* represents a k(on) < 100 M^−1 · s^−1) | * (* represents a k(on) < 100 M^−1 · s^−1) | ** (** represents a k(on) of 100 to 10,000 M^−1 · s^−1) | > 16 | 8 to 16 | > 16 | > 16
C/C(=N\O)[C@@H]1c2c(cnn2C)[C@@H]2CN1C(=O)N2OS(=O)(=O)O [Example 71, (4R,8S)-8-((E)-1-(hydroxyimino)ethyl)-1-methyl-6-oxo-4,8-dihydro-1H-4,7-methanopyrazolo[3,4-e][1,3]diazepin-5(6H)-yl hydrogen sulfate] | * (* represents a k(on) < 100 M^−1 · s^−1) | * (* represents a k(on) < 100 M^−1 · s^−1) | ** (** represents a k(on) of 100 to 10,000 M^−1 · s^−1) | 8 to 16 | 8 to 16 | > 16 | > 16
